Results from patent publication US6489312B1, “Pharmaceutical formulations comprising aminoalkyl phosphorothioates” (MedImmune Oncology, Inc., priority 1999, dated 2002).

Experiments:
[1] = Body weight of irradiated mice as objective indicator of mucositis; format: in vivo, C57BL/6 female mice; details: for Weight: amifostine 50 mg/ml, 200 mg/Kg s.c. 30 minutes before 16.5 Gy irradiation
Method: (§1) C57BL/6 female mice of 8-10 weeks old were used and fed with semi liquid food. The mice were randomly divided into treatment groups of five mice each. The treatment groups were, for example,
(§2) Unanesthetized mice were maintained in supine position and irradiated exclusively on the tip of their mouth. […] Irradiation was performed with a RT 250 Philips apparatus delivering 1.98 Gy per min. (200 Kv, 20 mA, filter of 0.2 mm de Cu). During irradiation, a constant normobaric air renewal was maintained. The effects of amifostine were evaluated using a single dose of 16.5 Gy.
(§3) Amifostine was dissolved in appropriate diluent to achieve a final concentration of 50 mg/ml immediately before injections. Amifostine was dissolved in 0.075% sodium deoxycholate to achieve a final concentration of 50 mg/ml. Amifostine was dissolved in a mixture of 2% EDTA and 2% sorbitol to achieve a final concentration of 50 mg/ml. Amifostine was dissolved in 0.2% EDTA to achieve a final concentration of 50 mg/ml. Subcutaneous injections (200 mg/Kg) were conducted 30 minutes before irradiation. Where a control group was used, a first control group was injected with the saline solution and subsequently irradiated, and a second control group was injected with the saline solution, but was not irradiated.
(§4) The effects of irradiation on lip mucosa were evaluated using the scoring system described by Parkins et al. (1983, Radiother. Oncol. 1:159-165). Body weight of the treated mice were scored periodically after treatment. Reduction in body weight was used as an objective indication of the severity of mucositis induced by irradiation, presumably resulting from the inability of the animals to eat. In this model, the acute reactions peaked on day 10 to 11 after irradiation.
(§5) These examples describe pharmaceutical formulations of the invention comprising amifostine in combination with surfactants and/or hydrotropes and/or chelating agents. The pharmaceutical formulations were administered, and the effects of irradiation on lip mucosa evaluated using the methods described in the first Example above.

[2] = test system: radiation-induced mucositis; experiment: Radiation-induced mucositis in the lip of irradiated mice, total mucositis score (erythema + edema, Parkins scoring); format: in vivo, C57BL/6 female mice; set-up: key to Total Mucositis Score After 11 days: combined erythema + edema score (Parkins), maximum 7; details: for Score (total mucositis score): amifostine 50 mg/ml, 200 mg/Kg s.c. 30 minutes before 16.5 Gy irradiation, maximum score 7
Text: One of the major limiting acute toxicities associated with radiotherapy is radiation-induced mucositis. The ability to reduce the duration and severity of acute mucosal reactions is of particular importance in the radiotherapy and/or chemotherapy of head and neck cancer. Therefore, the radioprotective effects of amifostine were examined in an experimental model of mucositis. In particular, the study compared the radioprotective effects of amifostine by subcutaneous (s.c.) and intraperitoneal (i.p.) administration.
as §1, §2, §3, §4
Other symptoms of mucositis such as mucosal erythema and edema were also recorded. These symptoms developed more slowly than weight loss following irradiation. Mucosal erythema and edema were scored separately, and could be analyzed as separate scores or as a combined score yielding a maximum score of 7. Mouse lip mucosal erythema was scored according to Table 1.
Mucosal edema (swelling) of the lips was scored according to table 2.
as §5

NCCCNCCSP(=O)(O)O [Amifostine, S-2-(3-aminopropylamino)ethyl dihydrogen phosphorothioate]
Weight ([1]; Day 0): 16.4 g
Weight ([1]; Day 6): 15.8 g
Weight ([1]; Day 10): 17.4 g
Weight ([1]; Day 11): 17.8 g
Weight ([1]; Day 12): 17.6 g
Weight ([1]; Day 18): 18.4 g
Weight ([1]; Day 28): 19.5 g
Effect on body weight reduction after irradiation (in words) ([1]; s.c. administration before irradiation, compared with other groups): Less severe reductions in body weight
Score (total mucositis score) ([2]; Day 0): 0.0
Score (total mucositis score) ([2]; Day 6): 0.5
Score (total mucositis score) ([2]; Day 10): 1.7
Score (total mucositis score) ([2]; Day 11): 1.8
Score (total mucositis score) ([2]; Day 12): 1.3
Score (total mucositis score) ([2]; Day 18): 0.4
Score (total mucositis score) ([2]; Day 28): 0.0

NCCCNCCS [WR-1065, S-2-(3-aminopropylamino)ethanethiol]
% Weight Change After 6 Days ([1]; after 6 days, irradiated mice, methods of Example 1): −8.7%
Total Mucositis Score After 11 days ([2]; after 11 days, irradiated mice, methods of Example 1): 5.1
